Test results: PMC8830681, “Circadian control of heparan sulfate levels times phagocytosis of amyloid beta aggregates” (PLoS Genetics, 2022)

What was measured:
[1] = tested on: bone-marrow derived macrophages (BMDMs) from Per2::Luc C57BL/6J mice; assay: Phagocytosis assay of HiLyte 488 labeled amyloid-beta by serum-shock synchronized macrophages (with or without heparinases); format: cell-based, mouse; conditions: ECHO v4.1 fit, average of 3 replicates, log10 mean cell fluorescence, 2 h uptake every 4 h PS16-PS40, WT Per2::Luc BMDMs
From the text: To do so, we modified a previously-employed BMDM phagocytosis assay (as BMDMs are both models for activated microglia and are known to migrate into the brain in late-stage AD), to use fluorescently labeled Aβ42 to determine if the phagocytosis of Aβ42 is controlled by the circadian clock. In brief, BMDMs were derived from bone marrow progenitor cells extracted from Per2::Luc C57BL/6J mice and differentiated with recombinant Macrophage Colony Stimulating Factor (M-CSF), with flow cytometry confirming complete differentiation into naïve peripheral macrophages. […] 16 h after synchronization, confluent dishes of these BMDMs were treated HiLyte 488 labeled Aβ42 (Anaspec), in triplicate, every 4 h over a 24 h circadian period. BMDMs treated with labeled Aβ42 were harvested two hours after Aβ42 treatment and fixed with formalin. Total cellular fluorescence levels were analyzed with fluorescent confocal microscopy and quantified using a custom cell measurement MATLAB script (Fig 1A, S2 Fig, and S1 Table).
Bone marrow was harvested from the femurs and tibias of one 3–6-month-old male mouse using a 26 g needle and syringe filled with DMEM supplemented media. ACK lysing buffer (Lonza 10-548E) was used to lyse red blood cells in order to prevent erythrocyte contamination. Filtered bone marrow cells were counted using a BioRad TC20 automated cell counter and plated on 35 mm cell culture plates at a density of 1 x 10^6 in macrophage differentiation media. After three days of incubation at 37°C with 5% CO2, fresh macrophage differentiation media was added. After another 3 days of incubation, the cells were washed with 2 ml warm PBS per plate, and replaced with macrophage assay media, and the cultures were incubated for 24 h. Macrophage cultures were then washed with 2 ml warm PBS, macrophage serum starvation media was added, and the plates were incubated in the starve media for 24 h. Next, macrophage serum starvation media was removed, and macrophage serum shock media was added, and cultures were incubated for 2 h. Macrophage cultures were then washed with 2 ml warmed PBS each and macrophage media Luciferin was added. Cultures were sealed with grease and glass cover slips and placed in a LumiCycle 32 luminometer (Actimetrics) to confirm synchronization of circadian rhythmicity. Assays began 16 h post serum shock to allow the synchronized cells to return to homeostasis.
All amyloid-beta isoforms were reconstituted 24 h or less before experimentation in water and PBS (1:1) and were dissolved using sonication for approximately 30 min. The reconstituted Aβ was pooled from individual vials before aliquoting for each experimental replicate. The aliquots were then flash frozen and stored at -80°C until 20 min before use.
Using synchronized macrophages (as described above) starting at PS16 macrophages were treated every 4 h for 24 h, in triplicate, with 115 μl (0.25 mg/ml) of fluorescently labeled amyloid-beta (PS16, PS20, PS24, PS28, PS32, PS36, and PS40) and heparinases at the reported activity levels (S5 Table). The treated macrophages were then incubated at 37°C for 2 h. Following the two-hour incubation, the media was aspirated, and the macrophages were washed with 2ml of PBS three times before Cell Stripper (Corning 25-056-CI) was added to the cultures, which were then incubated at 37°C for 3 min. Detached macrophages were next centrifuged at 400 g for 5 min, the supernatant was aspirated, and the macrophage cell pellets were resuspended in formalin and incubated in the dark at room temperature for 30 min. Macrophages were then centrifuged for 5 min at 400 g, the supernatant was aspirated, and the macrophages were resuspended in 250 μL of PBS and kept at 4°C. The fixed macrophages were imaged using fluorescent microscopy within a week of the experiment. All fluorescent images from the phagocytosis experiments are available on Mendeley Data (doi: 10.17632/zrmgjyggmr.1). […]

[2] = tested on: BMDMs from PER1^-/-/PER2^-/- knockout (KO) mice; assay: Phagocytosis assay of HiLyte 488 labeled Aβ42 in clock knockout macrophages; format: cell-based, mouse
Protocol: (Fig 1B and 1C, S1 Fig). The extended harmonic circadian oscillator model (ECHO version 4.1) was used to analyze the average of the three replicates from each timepoint and predicted that Aβ42 total cellular florescence, and therefore the phagocytosis of Aβ42, oscillated with a circadian period (~26 h, ECHO p-value = 1.61 x 10^−6). Additionally, when compared with PER2 levels extrapolated based on the lumicycle data of the macrophages sampled, we saw that total cellular fluorescence was highest after the zenith of PER2 levels (Fig 1B and 1C). The Aβ42 phagocytosis experiment was then repeated using PER1^-/-/PER2^-/- knockout (KO) mice to confirm the circadian influence of this relationship. BMDMs from the knockout mice were extracted, derived into naïve macrophages, and synchronized as described above. KO macrophages were treated with fluorescently labeled Aβ42 for 2 h, in triplicate, every 4 h for 24 h starting at PS16.
PER2::LUC C57BL/6J male mice 3–6 months of age bred from Jackson Labs stock strains (Accession # 006852) were used for all WT experiments and were euthanized using CO2 gas and cervical dislocation. […]
Average cellular pixel intensities were used as a proxy for of Aβ phagocytosis. At least 100 cells measured per time point were analyzed using the above-described software. […]

[3] = as a free peptide and when bound to HSPGs; cited from earlier work
From the text: In addition to binding Aβ42, HSPGs regulate the formation of Aβ42 plaques, with highly-sulfated HSPGs accumulating in the plaques. Aβ peptides exist in two forms (Aβ40 or Aβ42) based on the cleavage of the amyloid precursor protein (APP) by β- and γ-secretase. Previous studies show differential phagocytosis of Aβ42 and Aβ40, yet the key amino acids essential to binding are present in Aβ40 (Fig 6C) (13–16, HHQK). However, the anionic bridge between lysine 28 and […], which is broken by HSPGs to allow the formation of Aβ42 aggregates by rapidl ...

## Amyloid-beta 42 labeled with HiLyte 488 [Aβ42]
[1]
  Oscillation Type: Forced
[2]; 2 h treatment, in triplicate, every 4 h for 24 h starting at PS16, total cellular fluorescence
  oscillation of Aβ42 phagocytosis in knockout macrophages (in words): ablation of the zenith of fluorescence at PS32
[2]; ECHO v4.1 fit, average of 3 replicates, log10 mean cell fluorescence, 2 h uptake every 4 h from PS16, PER1-/-/PER2-/- KO BMDMs
  Oscillation Type: Damped
[3]
  aggregation kinetics compared with Aβ40 (in words): higher aggregation kinetics
